Laboratory results reported in ChEMBL document CHEMBL5724696, “Autophagy assay results for EUbOPEN Chemogenomics Library” (2024).

Key:
Type in all cases: functional, Homo sapiens
[1] = system: U2OS; assay: (§1) Here: values are normalized to the negative (DMSO; defined as 0% autophagy induction) and positive (250nM Torin1; mTOR inhibitor; defined as maximal inducer of autophagy = 100%) control compounds and represented as % of autophagy induction. […] The impact of autophagy induction on cells is complex and depends on the affected target. As such, the magnitude of a phenotype may not be equally mirrored in the %-value of autophagy induction and vice versa. The dynamics of the induction may indicate the mode of activation: e.g. activation via phosphorylation or a signaling cascade may occur fast, while activation via transcription factors may take considerably longer. […] Of note, treatment concentrations may be sub-optimal for specific compounds, leading to false negative annotations.; details: Culturing Media DMEM, 1 % Penicillin/Streptomycin, 10% Fetal bovin serum Add-On: No, Screening Media Control DMEM, Screening Media Samples DMEM
[2] = system: U2OS; assay: as §1; details: Culturing Media DMEM, 1 % Penicillin/Streptomycin, 10% Fetal bovin serum Add-On: No, Screening Media Control DMEM, Screening Media Samples DMEM; remark: listed apart in the source
[3] = system: TERT-RPE1; assay: as §1; details: Culturing Media DMEM/F12 (1:1), 1 % Penicillin/Streptomycin, 10% Fetal bovin serum Add-On: No, Screening Media Control DMEM/F12 (1:1), Screening Media Samples DMEM/F12 (1:1)
[4] = Compound Concentration 0.5 uM, Timepoint 12 hours
[5] = Compound Concentration 0.5 uM, Timepoint 24 hours
[6] = Compound Concentration 0.5 uM, Timepoint 36 hours
[7] = Compound Concentration 0.5 uM, Timepoint 60 hours
[8] = Compound Concentration 2 uM, Timepoint 12 hours
[9] = Compound Concentration 2 uM, Timepoint 24 hours
[10] = Compound Concentration 2 uM, Timepoint 36 hours
[11] = Compound Concentration 2 uM, Timepoint 60 hours
[12] = Compound Concentration 10 uM, Timepoint 12 hours
[13] = Compound Concentration 10 uM, Timepoint 24 hours
[14] = Compound Concentration 10 uM, Timepoint 36 hours
[15] = Compound Concentration 10 uM, Timepoint 60 hours

Structure (SMILES)	autophagy induction [1, 4] [%]	autophagy induction [1, 5] [%]	autophagy induction [1, 6] [%]	autophagy induction [1, 7] [%]	autophagy induction [1, 8] [%]	autophagy induction [1, 9] [%]	autophagy induction [1, 10] [%]	autophagy induction [1, 11] [%]	autophagy induction [1, 12] [%]	autophagy induction [1, 13] [%]	autophagy induction [1, 14] [%]	autophagy induction [1, 15] [%]	autophagy induction [2, 4] [%]	autophagy induction [2, 5] [%]	autophagy induction [2, 6] [%]	autophagy induction [2, 7] [%]	autophagy induction [2, 8] [%]	autophagy induction [2, 9] [%]	autophagy induction [2, 10] [%]	autophagy induction [2, 11] [%]	other results
CCc1cc(C(C)=O)c(O)cc1OCCCCCC(C)(C)c1nn[nH]n1 [LY-255283]	7.95	0.1788	0.4616	2.676	6.9255	1.248	3.296	1.486	-12.1559	-5.674	-8.912	-14.6191	3.867	-0.4862	-0.9692	-0.6256	7.835	0.4992	-1.36	0.1348	autophagy induction [2, 12]: 10.6288%; autophagy induction [2, 13]: 4.072%; autophagy induction [2, 14]: 1.093%; autophagy induction [2, 15]: 0.5552%; autophagy induction [3, 4]: -9.9842%; autophagy induction [3, 5]: -11.9426%; autophagy induction [3, 6]: -14.7708%; autophagy induction [3, 7]: -17.4457%; autophagy induction [3, 8]: -8.34%; autophagy induction [3, 9]: -9.195%; autophagy induction [3, 10]: -15.7799%; autophagy induction [3, 11]: -19.0275%; autophagy induction [3, 12]: -6.621%; autophagy induction [3, 13]: -4.037%; autophagy induction [3, 14]: -5.452%; autophagy induction [3, 15]: -5.811%
N#Cc1cccc(C(=O)Nc2cc(-c3ccccc3)nn2-c2ccccc2)c1	0.2338	1.876	9.199	8.756	-6.937	-1.593	2.3802	-5.115	0.7229	5.625	-1.742	-2.793	-5.641	-2.328	-2.122	-3.431	0.2801	-3.069	-2.148	-2.332	autophagy induction [2, 12]: -0.7756%; autophagy induction [2, 13]: -1.607%; autophagy induction [2, 14]: -0.5457%; autophagy induction [2, 15]: -0.9476%; autophagy induction [3, 4]: -7.699%; autophagy induction [3, 5]: -6.069%; autophagy induction [3, 6]: 3.327%; autophagy induction [3, 7]: 19.4837%; autophagy induction [3, 8]: -8.111%; autophagy induction [3, 9]: -9.075%; autophagy induction [3, 10]: -9.172%; autophagy induction [3, 11]: -3.858%; autophagy induction [3, 12]: -3.603%; autophagy induction [3, 13]: -4.896%; autophagy induction [3, 14]: -4.571%; autophagy induction [3, 15]: -1.999%
